# Source: patent US6872730B2, “Substituted benzofurans and benzothiophenes, methods of making and methods of use as integrin antagonists” (3-Dimensional Pharmaceuticals, Inc., priority 2001, dated 2005)
# Target: T1, human αvβ3 (Homo sapiens, UniProt P05106+P06756)
# T1 construct: purchased Chemicon CC1019
# Assay: αvβ3-vitronectin assay
# Format: binding
# Conditions: ELISA plate coated with human αvβ3, biotinylated human vitronectin, room temperature; read-out: IC50 for inhibition of the αvβ3-vitronectin interaction
# Protocol: The assay is based on the method of Dennis (Dennis, M. S., et al., Proteins 15: 312-321 (1993)). Costar 9018 flat-bottom 96-well ELISA plates were coated overnight at 4° C. with 100 μL/well of 10 μg/mL human fibrinogen (Calbiochem 341578) in 20 mM Tris-HCl pH 7.5, 150 mM NaCl, 2 mM CaCl2, 0.02% NaN3 (TAC buffer), and blocked for 1 hr at 37° C. with 150 μL/well of TAC buffer containing 0.05% Tween 20 and 1% bovine serum albumin (TACTB buffer). After washing 3 times with 200 μL/well of 10 mM Na2 HPO4 pH 7.5, 150 mM NaCl, 0.01% Tween 20 (PBST buffer), controls or test compound (0.027-20.0 μM) were mixed with 40 μg/mL human GPIIbIIIa (Enzyme Research Laboratories) in TACTB buffer, and 100 μL/well of these solutions were incubated for 1 hr at 37° C. The plate was then washed 5 times with PBST buffer, and 100 μL/well of a monoclonal anti-GPIIbIIIa antibody in TACTB buffer (1 μg/mL, Enzyme Research Laboratories MabGP2b3a) was incubated at 37° C. for 1 hr. After washing (5 times with PBST buffer), 100 μL /well of goat anti-mouse IgG conjugated to horseradish peroxidase (Kirkegaard & Perry 14-23-06) was incubated at 37° C. for 1 hr (25 ng/mL in PBST buffer), followed by a 6-fold PBST buffer wash. The plate was developed by adding 100 μL/well of 0.67 mg o-phenylenediamine dihydrochloride per mL of 0.012% H2O2, 22 mM sodium citrate, 50 mM sodium phosphate, pH 5.0 at room temperature. The reaction was stopped with 50 μL/well of 2M H2SO4, and the absorbence at 492 nm was recorded. Percent (%) inhibition was calculated from the average of three separate determinations relative to buffer controls (no test compound added), and a four parameter fit (Marquardt, D. W., J. Soc. Indust. Appl. Math. 11:431-441 (1963)) was used to estimate the half maximal inhibition concentration (IC50).
# The assay was based on the method of Niiya (Niiya, K., et al., Blood 70:475-483 (1987)). […] Following a 5-fold PBST buffer wash, the plate was developed and results were calculated as described for the fibrinogen-IIbIIIa assay.
# T1 sequence (P06756 31-889 limits assumed): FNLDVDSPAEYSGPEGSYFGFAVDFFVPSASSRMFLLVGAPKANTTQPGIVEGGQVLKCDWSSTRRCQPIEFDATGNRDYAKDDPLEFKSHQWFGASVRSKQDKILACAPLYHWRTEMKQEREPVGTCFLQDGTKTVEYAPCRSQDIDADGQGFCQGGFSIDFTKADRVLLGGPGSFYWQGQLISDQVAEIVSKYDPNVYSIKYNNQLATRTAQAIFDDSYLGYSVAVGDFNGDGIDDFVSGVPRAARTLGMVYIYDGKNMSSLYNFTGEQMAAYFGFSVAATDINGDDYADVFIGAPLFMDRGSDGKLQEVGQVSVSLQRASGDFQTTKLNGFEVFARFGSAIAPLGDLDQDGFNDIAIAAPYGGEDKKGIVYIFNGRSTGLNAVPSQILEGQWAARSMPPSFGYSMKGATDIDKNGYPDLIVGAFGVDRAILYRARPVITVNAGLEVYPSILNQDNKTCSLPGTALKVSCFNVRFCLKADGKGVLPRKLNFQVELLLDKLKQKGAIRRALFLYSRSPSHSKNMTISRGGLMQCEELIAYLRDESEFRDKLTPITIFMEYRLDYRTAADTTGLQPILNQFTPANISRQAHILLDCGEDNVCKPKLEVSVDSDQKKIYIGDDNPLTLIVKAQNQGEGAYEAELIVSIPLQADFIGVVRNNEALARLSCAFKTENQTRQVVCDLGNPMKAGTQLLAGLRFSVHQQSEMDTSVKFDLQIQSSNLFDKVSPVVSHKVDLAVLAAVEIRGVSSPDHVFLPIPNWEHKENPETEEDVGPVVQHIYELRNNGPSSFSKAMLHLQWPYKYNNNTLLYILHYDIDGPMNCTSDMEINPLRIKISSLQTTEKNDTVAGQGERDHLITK
# T1 sequence (P06756 891-1048 partner limits assumed): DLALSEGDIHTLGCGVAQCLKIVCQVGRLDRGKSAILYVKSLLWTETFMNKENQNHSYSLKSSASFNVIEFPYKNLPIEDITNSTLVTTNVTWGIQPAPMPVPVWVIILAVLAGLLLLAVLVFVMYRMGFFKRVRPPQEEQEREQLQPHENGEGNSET
# T1 sequence (P05106 27-788): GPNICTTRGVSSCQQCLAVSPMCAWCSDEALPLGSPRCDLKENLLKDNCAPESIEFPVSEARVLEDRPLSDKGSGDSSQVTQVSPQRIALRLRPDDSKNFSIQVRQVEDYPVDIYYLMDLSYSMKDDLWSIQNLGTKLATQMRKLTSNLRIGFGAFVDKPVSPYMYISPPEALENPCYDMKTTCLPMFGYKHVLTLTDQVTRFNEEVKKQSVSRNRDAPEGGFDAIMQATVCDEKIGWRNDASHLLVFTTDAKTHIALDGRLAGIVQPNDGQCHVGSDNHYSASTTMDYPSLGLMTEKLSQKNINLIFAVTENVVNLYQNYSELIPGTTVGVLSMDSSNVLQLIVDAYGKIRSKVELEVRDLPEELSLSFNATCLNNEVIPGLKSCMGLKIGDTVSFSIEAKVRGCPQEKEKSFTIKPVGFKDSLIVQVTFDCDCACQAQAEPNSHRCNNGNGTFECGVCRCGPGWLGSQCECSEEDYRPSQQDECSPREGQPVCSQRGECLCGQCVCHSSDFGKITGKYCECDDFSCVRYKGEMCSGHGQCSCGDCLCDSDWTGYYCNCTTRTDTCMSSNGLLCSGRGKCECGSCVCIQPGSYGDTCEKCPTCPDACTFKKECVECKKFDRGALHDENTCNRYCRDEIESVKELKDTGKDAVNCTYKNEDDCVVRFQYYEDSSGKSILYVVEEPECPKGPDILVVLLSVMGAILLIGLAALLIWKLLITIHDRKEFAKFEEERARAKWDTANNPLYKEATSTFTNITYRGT
row,IC50 [nM],SMILES
1,30,"CNc1cccc(CCOc2ccc3c(CCC(=O)O)csc3c2)n1 [Example 1, 3-(6-{2-[6-(methylamino)-2-pyridyl]ethoxy}benzo [b]thiophen-3-yl)propanoic acid]"
2,8,"O=C(O)CCc1csc2cc(OCCc3ccc4c(n3)NCCC4)ccc12 [Example 2, 3-{6-[2-(5,6,7,8-Tetrahydro-[1,8]naphthyridin-2-yl)-ethoxy]-benzo[b]thiophen-3-yl}-propionic acid]"
3,33,"CNc1cccc(CCOc2ccc3c(CCC(=O)O)coc3c2)n1 [Example 3, 3-(6-{2-[6-(Methylamino)-2-pyridyl]ethoxy}benzo[b]furan-3-yl)propanoic acid]"
